Where two headings read alike, the source gives them in different places.
Key:
Format in all cases: biochemical
[1] = target: T1, MST2 (Homo sapiens, UniProt Q13188); experiment: Kinase profiling MST2; conditions: for remaining activity at 100 µM: read-out: residual kinase activity, MST2
T1 sequence (Q13188 1-491): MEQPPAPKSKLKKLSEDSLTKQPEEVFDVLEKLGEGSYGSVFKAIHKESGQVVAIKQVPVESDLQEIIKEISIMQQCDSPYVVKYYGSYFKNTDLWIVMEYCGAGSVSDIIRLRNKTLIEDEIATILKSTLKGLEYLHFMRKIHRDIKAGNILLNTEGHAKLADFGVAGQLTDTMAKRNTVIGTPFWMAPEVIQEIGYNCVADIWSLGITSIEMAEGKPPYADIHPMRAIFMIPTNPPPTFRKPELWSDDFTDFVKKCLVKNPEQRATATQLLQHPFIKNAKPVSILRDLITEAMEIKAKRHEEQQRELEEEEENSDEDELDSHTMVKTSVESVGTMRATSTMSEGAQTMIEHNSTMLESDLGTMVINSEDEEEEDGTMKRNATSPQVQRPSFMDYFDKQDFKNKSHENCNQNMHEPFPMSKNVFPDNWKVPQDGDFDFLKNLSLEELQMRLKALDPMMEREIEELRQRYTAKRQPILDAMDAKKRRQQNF
From the text: (§1) Any value less that 25 is considered to be highly significant inhibition.

[2] = target: PAK4 (Homo sapiens, UniProt O96013); experiment: Kinase profiling PAK4; conditions: for remaining activity at 100 µM: read-out: residual kinase activity, PAK4
From the text: as §1

[3] = target: HER4 (Homo sapiens, UniProt Q15303); experiment: Kinase profiling HER4; conditions: for remaining activity at 100 µM: read-out: residual kinase activity, HER4
From the text: as §1

[4] = target: T2, PDK1 (Homo sapiens, UniProt O15530); experiment: Kinase profiling PDK1; conditions: for remaining activity at 100 µM: read-out: residual kinase activity, PDK1
T2 sequence (O15530 1-556): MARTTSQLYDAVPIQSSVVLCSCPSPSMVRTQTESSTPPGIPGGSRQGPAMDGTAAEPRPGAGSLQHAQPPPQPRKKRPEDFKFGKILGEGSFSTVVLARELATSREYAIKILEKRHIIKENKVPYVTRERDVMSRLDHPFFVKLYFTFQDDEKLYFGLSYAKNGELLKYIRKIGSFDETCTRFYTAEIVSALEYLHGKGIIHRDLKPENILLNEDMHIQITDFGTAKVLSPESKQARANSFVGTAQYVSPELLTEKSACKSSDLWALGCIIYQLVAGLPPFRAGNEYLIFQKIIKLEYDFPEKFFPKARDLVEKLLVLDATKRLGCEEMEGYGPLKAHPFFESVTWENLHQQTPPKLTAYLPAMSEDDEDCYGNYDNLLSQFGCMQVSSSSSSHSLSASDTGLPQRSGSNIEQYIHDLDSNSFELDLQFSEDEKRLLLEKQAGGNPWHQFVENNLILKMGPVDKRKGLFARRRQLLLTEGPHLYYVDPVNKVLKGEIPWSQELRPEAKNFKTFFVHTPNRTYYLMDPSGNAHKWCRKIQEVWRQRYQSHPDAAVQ
From the text: as §1

[5] = target: T3, TAK1 (Homo sapiens, UniProt O43318); experiment: Kinase profiling TAK1; conditions: for remaining activity at 100 µM: read-out: residual kinase activity, TAK1
T3 sequence (O43318 1-303 limits assumed): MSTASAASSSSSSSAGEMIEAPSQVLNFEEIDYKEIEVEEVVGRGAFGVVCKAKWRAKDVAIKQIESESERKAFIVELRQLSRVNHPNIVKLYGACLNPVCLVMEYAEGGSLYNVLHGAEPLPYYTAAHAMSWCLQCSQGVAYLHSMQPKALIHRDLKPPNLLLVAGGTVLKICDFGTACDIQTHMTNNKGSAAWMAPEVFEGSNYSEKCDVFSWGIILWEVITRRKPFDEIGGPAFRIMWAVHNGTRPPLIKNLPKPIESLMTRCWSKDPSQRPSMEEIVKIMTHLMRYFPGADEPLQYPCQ
T3 sequence (Q15750 437-504 partner limits assumed): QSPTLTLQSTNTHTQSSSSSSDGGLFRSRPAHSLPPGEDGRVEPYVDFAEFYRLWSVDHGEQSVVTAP
From the text: as §1

[6] = target: PRK2 (Homo sapiens, UniProt Q16513); experiment: Kinase profiling PRK2; conditions: for remaining activity at 100 µM: read-out: residual kinase activity, PRK2
From the text: as §1

[7] = target: SmMLCK (Homo sapiens, UniProt Q15746); experiment: Kinase profiling SmMLCK; conditions: for remaining activity at 100 µM: read-out: residual kinase activity, SmMLCK
[8] = target: MSK1 (Homo sapiens, UniProt O75582); experiment: Kinase profiling MSK1; conditions: for remaining activity at 100 µM: read-out: residual kinase activity, MSK1
From the text: as §1

[9] = target: MLK3 (Homo sapiens, UniProt Q16584); experiment: Kinase profiling MLK3; conditions: for remaining activity at 100 µM: read-out: residual kinase activity, MLK3
From the text: as §1

[10] = target: T4, IRAK4 (Homo sapiens, UniProt Q9NWZ3); experiment: Kinase profiling IRAK4; conditions: for remaining activity at 100 µM: read-out: residual kinase activity, IRAK4
T4 sequence (Q9NWZ3 1-460): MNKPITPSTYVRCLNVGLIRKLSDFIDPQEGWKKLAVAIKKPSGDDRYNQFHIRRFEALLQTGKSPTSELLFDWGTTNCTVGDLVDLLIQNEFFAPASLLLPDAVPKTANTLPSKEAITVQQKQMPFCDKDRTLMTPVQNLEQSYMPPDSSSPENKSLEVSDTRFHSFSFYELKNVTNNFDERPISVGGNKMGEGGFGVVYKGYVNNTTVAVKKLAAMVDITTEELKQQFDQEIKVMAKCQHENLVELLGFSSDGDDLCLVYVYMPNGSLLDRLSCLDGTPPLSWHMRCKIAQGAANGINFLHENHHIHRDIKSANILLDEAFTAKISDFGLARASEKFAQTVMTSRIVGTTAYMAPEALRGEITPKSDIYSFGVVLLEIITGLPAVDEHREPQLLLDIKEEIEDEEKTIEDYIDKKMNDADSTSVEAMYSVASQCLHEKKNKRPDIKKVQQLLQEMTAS
From the text: as §1

[11] = target: JNK1 (Homo sapiens, UniProt P45983); experiment: Kinase profiling JNK1; conditions: for remaining activity at 100 µM: read-out: residual kinase activity, JNK1
From the text: as §1

[12] = target: IGF-1R (Homo sapiens, UniProt P08069); experiment: Kinase profiling IGF-1R; conditions: for remaining activity at 100 µM: read-out: residual kinase activity, IGF-1R
From the text: as §1

[13] = target: PKBb (Homo sapiens, UniProt P31751); experiment: Kinase profiling PKBb; conditions: for remaining activity at 100 µM: read-out: residual kinase activity, PKBb; for residual kinase activity, PKBb: 100 micromolar inhibitor concentration, 100 is no change
From the text: as §1

[14] = target: S6K1 (Homo sapiens, UniProt P23443); experiment: Kinase profiling S6K1; conditions: for remaining activity at 100 µM: read-out: residual kinase activity, S6K1
From the text: as §1

[15] = target: SYK (Homo sapiens, UniProt P43405); experiment: Kinase profiling SYK; conditions: for remaining activity at 100 µM: read-out: residual kinase activity, SYK
From the text: as §1

[16] = 100 micromolar inhibitor, 100 = no change
[17] = 100 micromolar inhibitor concentration, 100 is no change

Chain of PAK4 (O96013 whole entry, species assumed): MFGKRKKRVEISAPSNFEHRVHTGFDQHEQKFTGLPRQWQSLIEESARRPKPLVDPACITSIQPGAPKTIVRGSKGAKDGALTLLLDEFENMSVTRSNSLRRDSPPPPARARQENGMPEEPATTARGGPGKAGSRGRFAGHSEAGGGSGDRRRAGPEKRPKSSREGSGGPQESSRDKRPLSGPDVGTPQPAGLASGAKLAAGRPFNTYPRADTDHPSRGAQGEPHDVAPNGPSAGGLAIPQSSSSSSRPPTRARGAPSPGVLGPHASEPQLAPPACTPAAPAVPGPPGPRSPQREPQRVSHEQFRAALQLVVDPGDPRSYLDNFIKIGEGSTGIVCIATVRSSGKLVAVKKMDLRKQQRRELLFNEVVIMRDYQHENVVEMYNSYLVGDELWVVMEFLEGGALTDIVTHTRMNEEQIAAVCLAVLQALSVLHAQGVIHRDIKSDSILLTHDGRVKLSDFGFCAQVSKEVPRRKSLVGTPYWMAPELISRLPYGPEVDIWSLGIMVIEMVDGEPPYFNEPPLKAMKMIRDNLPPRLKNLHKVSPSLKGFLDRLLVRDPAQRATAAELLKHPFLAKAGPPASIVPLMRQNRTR
Chain of HER4 (Q15303 26-1308, species assumed): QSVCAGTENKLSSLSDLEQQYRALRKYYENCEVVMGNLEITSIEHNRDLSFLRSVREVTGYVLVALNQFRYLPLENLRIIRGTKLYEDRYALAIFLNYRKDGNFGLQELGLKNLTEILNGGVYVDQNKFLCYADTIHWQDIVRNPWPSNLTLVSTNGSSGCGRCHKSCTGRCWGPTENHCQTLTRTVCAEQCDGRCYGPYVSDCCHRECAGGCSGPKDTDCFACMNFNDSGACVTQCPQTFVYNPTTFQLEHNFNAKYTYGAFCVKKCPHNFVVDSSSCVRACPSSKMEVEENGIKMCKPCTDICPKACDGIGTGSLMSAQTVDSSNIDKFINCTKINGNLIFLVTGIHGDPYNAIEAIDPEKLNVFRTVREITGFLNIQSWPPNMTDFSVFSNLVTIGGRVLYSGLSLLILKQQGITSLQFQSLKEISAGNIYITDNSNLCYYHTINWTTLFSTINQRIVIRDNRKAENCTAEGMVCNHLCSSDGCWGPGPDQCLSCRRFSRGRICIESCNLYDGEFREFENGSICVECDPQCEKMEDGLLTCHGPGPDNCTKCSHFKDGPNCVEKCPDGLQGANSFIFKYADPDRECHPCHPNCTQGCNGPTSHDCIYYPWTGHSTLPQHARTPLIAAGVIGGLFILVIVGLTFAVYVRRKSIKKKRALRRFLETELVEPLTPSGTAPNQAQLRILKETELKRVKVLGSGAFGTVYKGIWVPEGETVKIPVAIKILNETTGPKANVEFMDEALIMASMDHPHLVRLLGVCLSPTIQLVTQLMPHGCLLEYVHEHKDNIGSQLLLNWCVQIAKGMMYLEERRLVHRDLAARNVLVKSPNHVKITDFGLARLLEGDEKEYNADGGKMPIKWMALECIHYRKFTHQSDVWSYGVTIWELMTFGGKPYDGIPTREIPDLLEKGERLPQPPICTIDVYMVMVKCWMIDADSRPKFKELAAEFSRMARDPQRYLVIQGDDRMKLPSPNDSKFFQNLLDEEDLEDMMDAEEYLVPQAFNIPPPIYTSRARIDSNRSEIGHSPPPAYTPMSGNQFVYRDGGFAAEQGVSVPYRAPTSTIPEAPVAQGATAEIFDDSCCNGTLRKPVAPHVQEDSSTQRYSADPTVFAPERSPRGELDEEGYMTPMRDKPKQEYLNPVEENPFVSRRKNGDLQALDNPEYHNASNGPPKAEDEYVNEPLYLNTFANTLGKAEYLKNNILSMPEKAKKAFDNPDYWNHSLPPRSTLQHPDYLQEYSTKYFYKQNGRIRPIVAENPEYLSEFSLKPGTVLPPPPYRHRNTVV
Chain of S6K1 (P23443 whole entry, species assumed): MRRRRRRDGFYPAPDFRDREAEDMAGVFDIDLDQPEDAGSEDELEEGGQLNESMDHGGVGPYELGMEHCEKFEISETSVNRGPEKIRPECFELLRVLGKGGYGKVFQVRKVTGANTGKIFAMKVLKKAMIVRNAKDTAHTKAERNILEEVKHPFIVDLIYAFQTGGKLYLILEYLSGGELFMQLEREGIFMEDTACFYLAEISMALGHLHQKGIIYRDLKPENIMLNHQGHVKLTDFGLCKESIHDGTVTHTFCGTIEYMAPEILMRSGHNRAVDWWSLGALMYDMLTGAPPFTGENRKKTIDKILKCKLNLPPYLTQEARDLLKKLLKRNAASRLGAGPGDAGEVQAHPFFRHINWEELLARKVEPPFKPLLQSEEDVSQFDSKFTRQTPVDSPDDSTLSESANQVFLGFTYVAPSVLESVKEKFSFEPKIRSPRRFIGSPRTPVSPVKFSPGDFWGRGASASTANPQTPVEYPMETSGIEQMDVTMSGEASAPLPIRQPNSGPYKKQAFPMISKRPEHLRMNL
Chain of PRK2 (Q16513 whole entry, species assumed): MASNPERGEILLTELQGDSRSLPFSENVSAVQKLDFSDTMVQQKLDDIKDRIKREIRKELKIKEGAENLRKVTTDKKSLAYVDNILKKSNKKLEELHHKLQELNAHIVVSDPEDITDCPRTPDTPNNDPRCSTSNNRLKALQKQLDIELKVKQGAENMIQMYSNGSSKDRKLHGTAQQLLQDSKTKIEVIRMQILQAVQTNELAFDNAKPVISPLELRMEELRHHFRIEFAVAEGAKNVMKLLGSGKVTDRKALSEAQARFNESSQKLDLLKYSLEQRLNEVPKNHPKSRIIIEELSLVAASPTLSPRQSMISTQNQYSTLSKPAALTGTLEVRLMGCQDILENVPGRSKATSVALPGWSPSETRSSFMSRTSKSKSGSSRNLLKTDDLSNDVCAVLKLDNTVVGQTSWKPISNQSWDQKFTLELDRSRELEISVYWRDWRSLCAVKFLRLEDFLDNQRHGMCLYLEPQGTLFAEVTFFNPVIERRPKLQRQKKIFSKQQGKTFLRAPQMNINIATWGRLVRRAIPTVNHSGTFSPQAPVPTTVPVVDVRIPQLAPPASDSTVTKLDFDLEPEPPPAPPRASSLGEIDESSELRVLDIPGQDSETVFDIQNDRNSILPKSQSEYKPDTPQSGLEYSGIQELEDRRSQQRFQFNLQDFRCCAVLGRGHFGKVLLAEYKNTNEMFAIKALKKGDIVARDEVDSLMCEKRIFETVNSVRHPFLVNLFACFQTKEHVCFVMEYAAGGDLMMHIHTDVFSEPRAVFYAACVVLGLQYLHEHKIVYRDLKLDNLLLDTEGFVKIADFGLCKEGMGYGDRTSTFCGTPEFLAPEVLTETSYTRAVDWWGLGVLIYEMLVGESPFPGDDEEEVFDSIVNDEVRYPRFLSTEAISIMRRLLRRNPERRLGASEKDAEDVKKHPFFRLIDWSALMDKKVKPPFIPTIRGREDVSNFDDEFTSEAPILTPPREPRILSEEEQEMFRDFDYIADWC
Chain of JNK1 (P45983 whole entry, species assumed): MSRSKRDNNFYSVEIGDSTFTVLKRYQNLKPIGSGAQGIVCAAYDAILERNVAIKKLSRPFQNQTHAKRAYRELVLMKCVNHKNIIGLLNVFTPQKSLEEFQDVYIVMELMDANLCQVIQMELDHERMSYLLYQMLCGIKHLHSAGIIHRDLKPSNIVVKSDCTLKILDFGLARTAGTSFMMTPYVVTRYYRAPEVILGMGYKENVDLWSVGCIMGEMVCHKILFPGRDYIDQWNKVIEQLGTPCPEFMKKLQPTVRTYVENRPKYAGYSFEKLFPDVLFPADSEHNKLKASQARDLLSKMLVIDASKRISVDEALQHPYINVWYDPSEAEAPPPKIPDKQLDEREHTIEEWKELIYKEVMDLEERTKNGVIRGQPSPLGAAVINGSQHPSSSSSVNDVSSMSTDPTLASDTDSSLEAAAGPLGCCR
Chain of PKBb (P31751 whole entry): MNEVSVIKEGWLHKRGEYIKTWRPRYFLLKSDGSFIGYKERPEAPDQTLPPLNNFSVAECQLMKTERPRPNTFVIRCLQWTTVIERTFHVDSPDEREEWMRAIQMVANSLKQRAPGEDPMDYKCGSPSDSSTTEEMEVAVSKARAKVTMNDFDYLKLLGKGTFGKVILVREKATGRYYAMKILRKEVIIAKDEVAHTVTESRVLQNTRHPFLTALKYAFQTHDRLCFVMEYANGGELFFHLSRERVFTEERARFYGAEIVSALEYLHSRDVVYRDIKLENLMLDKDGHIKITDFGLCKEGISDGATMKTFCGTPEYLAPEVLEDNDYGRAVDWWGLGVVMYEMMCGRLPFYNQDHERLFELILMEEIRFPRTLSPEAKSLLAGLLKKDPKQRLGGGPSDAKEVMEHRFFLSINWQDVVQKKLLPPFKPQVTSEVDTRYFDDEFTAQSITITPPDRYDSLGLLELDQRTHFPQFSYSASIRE

Structure (SMILES) | residual kinase activity, MST2 [1, 17] | residual kinase activity, PAK4 [2, 17] | residual kinase activity, HER4 [3, 17] | residual kinase activity, PDK1 [4, 17] | residual kinase activity, TAK1 [5, 17] | residual kinase activity, PRK2 [6, 17] | residual kinase activity, SmMLCK [7, 17] | residual kinase activity, MSK1 [8, 17] | residual kinase activity, MLK3 [9, 17] | residual kinase activity, IRAK4 [10, 17] | residual kinase activity, JNK1 [11, 17] | residual kinase activity, IGF-1R [12, 17] | residual kinase activity, PKBb [13] | residual kinase activity, S6K1 [14, 17] | residual kinase activity, SYK [15, 17] | remaining activity at 100 µM [1, 17] [%] | remaining activity at 100 µM [2, 17] [%] | remaining activity at 100 µM [3, 17] [%] | remaining activity at 100 µM [4, 17] [%] | remaining activity at 100 µM [5, 17] [%] | further results
CC(=O)Nc1cccc(NC(=O)c2nc3ccc(O)cc3s2)c1 [Compound 03-07, N-(3-acetamidophenyl)-6-hydroxybenzo[d]thiazole-2-carboxamide] |  |  |  |  |  |  |  |  |  |  |  |  |  |  |  |  |  |  |  |  | remaining activity at 100 µM [1, 16]: 68%; remaining activity at 100 µM [2, 16]: 92%; remaining activity at 100 µM [3, 16]: 50%; remaining activity at 100 µM [4, 16]: 72%; remaining activity at 100 µM [5, 16]: 53%; remaining activity at 100 µM [6, 16]: 74%; remaining activity at 100 µM [7, 16]: 21%; remaining activity at 100 µM [8, 16]: 62%; remaining activity at 100 µM [9, 16]: 39%; remaining activity at 100 µM [10, 16]: 74%; remaining activity at 100 µM [11, 16]: 103%; remaining activity at 100 µM [12, 16]: 96%; remaining activity at 100 µM [13, 16]: 26%; remaining activity at 100 µM [14, 16]: 26%; remaining activity at 100 µM [15, 16]: 102%
O=C(Nc1nc2ccc(O)cc2s1)c1ccccc1 [Compound 03-60] | 40 | 35 | 16 | 98 | 9 | 27 | 15 | 31 | 5 | 22 | 88 | 18 | 86 | 11 | 64 |  |  |  |  |  | 
CC(=O)Nc1nc2ccccc2s1 [Compound 03-32] | 88 | 75 | 78 | 96 | 76 | 81 | 81 | 98 | 71 | 65 | 97 | 74 | 112 | 92 | 116 |  |  |  |  |  | 
CC(=O)Nc1nc2ccc(C#N)cc2s1 [Compound 01-94] |  |  |  |  |  |  |  |  |  |  |  |  |  |  |  | 56 | 34 | 90 | 97 | 17 | remaining activity at 100 µM [6, 17]: 70%; remaining activity at 100 µM [7, 17]: 54%; remaining activity at 100 µM [8, 17]: 81%; remaining activity at 100 µM [9, 17]: 55%; remaining activity at 100 µM [10, 17]: 10%; remaining activity at 100 µM [11, 17]: 90%; remaining activity at 100 µM [12, 17]: 78%; remaining activity at 100 µM [13]: 98%; remaining activity at 100 µM [14, 17]: 73%; remaining activity at 100 µM [15, 17]: 86%
O=C(Nc1nc2cc(O)ccc2s1)c1ccncc1 [Compound 03-11] | 84 | 73 | 96 | 100 | 55 | 77 | 63 | 97 | 95 | 69 | 95 | 107 | 82 | 83 | 75 |  |  |  |  |  | 
COc1ccc2sc(NC(C)=O)nc2c1 [Compound 03-21] |  |  |  |  |  |  |  |  |  |  |  |  |  |  |  | 91 | 94 | 94 | 115 | 50 | remaining activity at 100 µM [6, 17]: 67%; remaining activity at 100 µM [7, 17]: 50%; remaining activity at 100 µM [8, 17]: 93%; remaining activity at 100 µM [9, 17]: 59%; remaining activity at 100 µM [10, 17]: 52%; remaining activity at 100 µM [11, 17]: 97%; remaining activity at 100 µM [12, 17]: 78%; remaining activity at 100 µM [13]: 92%; remaining activity at 100 µM [14, 17]: 63%; remaining activity at 100 µM [15, 17]: 72%

From patent US10231954B2, “Neurodegenerative therapies” (LYTIX BIOPHARMA AS, priority 2014, dated 2019)
